Data taken from ChEMBL document CHEMBL3132845, “Design and discovery of 4-anilinoquinazoline ureas as multikinase inhibitors targeting BRAF, VEGFR-2 and EGFR” (Medchemcomm, 2013).

Tests used:
[1] = biological target: T1, Serine/threonine-protein kinase B-raf (Homo sapiens, UniProt P15056); assay: Inhibition of BRAF (unknown origin) after 1 hr by LanthaScreen assay
[2] = biological target: Epidermal growth factor receptor (Homo sapiens, UniProt P00533); assay: Inhibition of EGFR (unknown origin) after 1 hr by Caliper mobility shift assay
[3] = biological target: T2, Vascular endothelial growth factor receptor 2 (Homo sapiens, UniProt P35968); assay: Inhibition of VEGFR2 (unknown origin) after 1 hr by Caliper mobility shift assay
[4] = biological target: Serine/threonine-protein kinase B-raf (Homo sapiens, UniProt P15056, V600E); assay: Inhibition of BRAF V600E mutant (unknown origin) after 1 hr by LanthaScreen assay
[5] = biological target: T1, Serine/threonine-protein kinase B-raf; assay: Ratio of sorafenib IC50 to compound IC50 for BRAF (unknown origin) after 1 hr by LanthaScreen assay
[6] = biological target: T2, Vascular endothelial growth factor receptor 2; assay: Ratio of sorafenib IC50 to compound IC50 for VEGFR2 (unknown origin) after 1 hr by Caliper mobility shift assay

T1 sequence (P15056 whole entry): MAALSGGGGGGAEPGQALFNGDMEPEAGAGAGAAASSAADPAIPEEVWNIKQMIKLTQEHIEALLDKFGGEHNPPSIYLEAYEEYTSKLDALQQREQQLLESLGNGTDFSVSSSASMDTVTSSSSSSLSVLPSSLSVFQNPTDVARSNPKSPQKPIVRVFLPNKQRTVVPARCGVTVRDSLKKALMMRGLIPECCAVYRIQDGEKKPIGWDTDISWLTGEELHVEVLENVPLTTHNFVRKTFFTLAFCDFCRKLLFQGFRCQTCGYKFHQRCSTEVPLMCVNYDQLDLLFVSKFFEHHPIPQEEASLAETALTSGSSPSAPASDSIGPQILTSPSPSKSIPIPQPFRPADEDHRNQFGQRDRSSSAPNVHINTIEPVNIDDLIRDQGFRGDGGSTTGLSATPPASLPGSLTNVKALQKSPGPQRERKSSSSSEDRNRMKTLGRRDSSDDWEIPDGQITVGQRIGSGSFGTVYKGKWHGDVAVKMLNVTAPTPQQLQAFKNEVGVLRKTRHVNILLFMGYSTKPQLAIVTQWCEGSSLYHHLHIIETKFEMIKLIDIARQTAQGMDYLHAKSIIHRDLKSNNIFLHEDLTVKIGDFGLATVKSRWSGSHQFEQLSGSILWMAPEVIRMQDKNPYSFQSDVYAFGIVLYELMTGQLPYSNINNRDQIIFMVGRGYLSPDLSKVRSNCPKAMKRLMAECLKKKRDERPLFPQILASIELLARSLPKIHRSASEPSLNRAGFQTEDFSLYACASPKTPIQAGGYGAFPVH
Serine/threonine-protein kinase B-raf (Homo sapiens, UniProt P15056, V600E), sequence (P15056 2-766 V600E limits assumed): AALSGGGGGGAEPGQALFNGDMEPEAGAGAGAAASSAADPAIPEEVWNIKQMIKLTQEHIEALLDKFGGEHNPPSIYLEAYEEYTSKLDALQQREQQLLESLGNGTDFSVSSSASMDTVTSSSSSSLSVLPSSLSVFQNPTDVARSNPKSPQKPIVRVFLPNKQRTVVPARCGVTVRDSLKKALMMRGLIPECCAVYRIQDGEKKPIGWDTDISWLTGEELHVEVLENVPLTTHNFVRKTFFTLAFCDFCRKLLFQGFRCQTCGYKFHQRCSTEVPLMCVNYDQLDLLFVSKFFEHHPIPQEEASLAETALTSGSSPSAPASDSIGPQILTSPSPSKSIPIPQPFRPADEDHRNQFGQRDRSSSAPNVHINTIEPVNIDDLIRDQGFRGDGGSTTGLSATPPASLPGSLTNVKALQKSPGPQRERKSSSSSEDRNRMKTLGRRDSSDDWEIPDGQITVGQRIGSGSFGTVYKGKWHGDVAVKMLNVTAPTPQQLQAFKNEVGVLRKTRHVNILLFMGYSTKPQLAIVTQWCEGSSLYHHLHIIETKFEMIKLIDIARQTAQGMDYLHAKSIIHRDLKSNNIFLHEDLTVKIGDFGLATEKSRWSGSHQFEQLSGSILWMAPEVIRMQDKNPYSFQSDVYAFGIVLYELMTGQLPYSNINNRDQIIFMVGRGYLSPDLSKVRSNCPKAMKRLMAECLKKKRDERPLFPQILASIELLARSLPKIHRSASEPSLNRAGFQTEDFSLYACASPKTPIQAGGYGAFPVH
T2 sequence (P35968 whole entry): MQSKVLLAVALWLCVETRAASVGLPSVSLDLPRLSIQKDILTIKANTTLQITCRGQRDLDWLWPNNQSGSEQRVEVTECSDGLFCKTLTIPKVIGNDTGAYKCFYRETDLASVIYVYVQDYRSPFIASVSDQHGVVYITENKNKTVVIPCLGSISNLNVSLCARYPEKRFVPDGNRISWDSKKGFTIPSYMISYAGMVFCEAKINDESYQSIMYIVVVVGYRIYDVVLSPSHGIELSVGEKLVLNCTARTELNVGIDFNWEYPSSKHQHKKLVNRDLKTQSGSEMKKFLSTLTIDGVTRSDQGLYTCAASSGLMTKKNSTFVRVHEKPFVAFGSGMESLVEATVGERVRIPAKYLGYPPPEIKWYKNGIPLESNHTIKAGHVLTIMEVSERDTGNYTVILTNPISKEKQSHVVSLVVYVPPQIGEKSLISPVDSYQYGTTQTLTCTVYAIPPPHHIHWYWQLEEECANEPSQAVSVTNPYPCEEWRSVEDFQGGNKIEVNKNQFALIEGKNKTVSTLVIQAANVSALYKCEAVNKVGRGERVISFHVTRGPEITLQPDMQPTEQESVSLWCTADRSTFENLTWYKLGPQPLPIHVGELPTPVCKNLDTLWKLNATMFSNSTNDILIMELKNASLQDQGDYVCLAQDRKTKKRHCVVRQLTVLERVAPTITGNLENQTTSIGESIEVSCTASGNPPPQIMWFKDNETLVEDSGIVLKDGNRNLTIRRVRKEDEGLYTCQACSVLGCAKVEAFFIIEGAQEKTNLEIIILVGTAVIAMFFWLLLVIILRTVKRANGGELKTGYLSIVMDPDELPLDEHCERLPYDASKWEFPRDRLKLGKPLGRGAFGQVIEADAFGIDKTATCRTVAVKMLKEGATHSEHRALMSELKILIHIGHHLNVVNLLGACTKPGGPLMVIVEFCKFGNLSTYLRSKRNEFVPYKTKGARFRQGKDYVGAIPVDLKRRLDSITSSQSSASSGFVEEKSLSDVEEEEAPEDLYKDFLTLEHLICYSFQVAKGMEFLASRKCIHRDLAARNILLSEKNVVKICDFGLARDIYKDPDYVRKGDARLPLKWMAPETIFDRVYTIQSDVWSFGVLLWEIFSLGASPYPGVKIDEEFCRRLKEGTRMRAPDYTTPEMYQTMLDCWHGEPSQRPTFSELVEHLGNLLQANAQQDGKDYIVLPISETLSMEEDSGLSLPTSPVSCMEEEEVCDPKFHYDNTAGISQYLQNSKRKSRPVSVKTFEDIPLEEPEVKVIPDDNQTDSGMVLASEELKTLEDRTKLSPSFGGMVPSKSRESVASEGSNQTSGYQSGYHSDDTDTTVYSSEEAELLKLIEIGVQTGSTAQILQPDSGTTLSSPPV
Epidermal growth factor receptor, sequence (P00533 whole entry): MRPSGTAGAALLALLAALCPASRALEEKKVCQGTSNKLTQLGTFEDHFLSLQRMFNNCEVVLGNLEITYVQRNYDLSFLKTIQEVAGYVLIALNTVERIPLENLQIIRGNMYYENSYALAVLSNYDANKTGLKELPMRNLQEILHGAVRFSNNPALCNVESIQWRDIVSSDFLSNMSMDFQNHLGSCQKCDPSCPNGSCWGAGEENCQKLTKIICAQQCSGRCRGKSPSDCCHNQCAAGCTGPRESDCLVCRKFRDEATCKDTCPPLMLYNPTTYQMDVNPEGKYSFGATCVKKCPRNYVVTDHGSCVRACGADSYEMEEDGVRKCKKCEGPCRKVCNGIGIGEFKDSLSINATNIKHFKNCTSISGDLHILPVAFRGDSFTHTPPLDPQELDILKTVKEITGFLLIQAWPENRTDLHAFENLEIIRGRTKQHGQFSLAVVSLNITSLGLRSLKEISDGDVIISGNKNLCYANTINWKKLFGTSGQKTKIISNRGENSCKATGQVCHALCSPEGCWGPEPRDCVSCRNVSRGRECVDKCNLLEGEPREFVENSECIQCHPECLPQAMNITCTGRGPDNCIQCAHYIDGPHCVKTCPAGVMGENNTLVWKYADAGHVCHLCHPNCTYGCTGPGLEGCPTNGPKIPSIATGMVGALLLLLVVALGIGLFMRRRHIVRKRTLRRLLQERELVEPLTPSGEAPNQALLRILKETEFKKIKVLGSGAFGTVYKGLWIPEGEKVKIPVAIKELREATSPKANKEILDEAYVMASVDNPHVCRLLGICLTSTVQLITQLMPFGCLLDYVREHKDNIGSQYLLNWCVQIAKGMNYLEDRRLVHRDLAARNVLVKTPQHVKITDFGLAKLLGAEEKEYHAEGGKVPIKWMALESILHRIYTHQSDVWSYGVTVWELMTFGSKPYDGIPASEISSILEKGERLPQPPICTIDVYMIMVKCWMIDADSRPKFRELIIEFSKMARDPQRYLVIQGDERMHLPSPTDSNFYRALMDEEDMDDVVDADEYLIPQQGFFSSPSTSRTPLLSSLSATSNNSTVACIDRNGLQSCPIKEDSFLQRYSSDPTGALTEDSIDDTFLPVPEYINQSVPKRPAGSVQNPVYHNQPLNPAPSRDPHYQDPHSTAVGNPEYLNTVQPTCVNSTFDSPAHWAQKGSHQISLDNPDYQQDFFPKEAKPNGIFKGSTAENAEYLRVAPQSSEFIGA

SMILES | IC50 [1] [nM] | IC50 [2] [nM] | IC50 [3] [nM] | IC50 [4] [nM] | Ratio IC50 [5] | Ratio IC50 [6]
O=C(Nc1cccc(Nc2ncnc3cc(OCCCN4CCN(CCO)CC4)ccc23)c1)Nc1ccc(Cl)c(C(F)(F)F)c1 | 101 | 99 | 75 | 58 | – | –
COc1cc2ncnc(Nc3cccc(NC(=O)Nc4ccc(Cl)c(C(F)(F)F)c4)c3)c2cc1OCCCN1CCOCC1 | 195 | 82 | 213 | 75 | – | –
CCN(CCO)CCCOc1ccc2c(Nc3cccc(NC(=O)Nc4ccc(Cl)c(C(F)(F)F)c4)c3)ncnc2c1 | 112 | 188 | 91 | 53 | – | –
O=C(Nc1cccc(Nc2ncnc3cc(OCCCN4CCOCC4)ccc23)c1)Nc1ccc(F)c(Cl)c1 | 72 | 3320 | 2170 | 42 | – | –
COc1cc2ncnc(Nc3ccc(NC(=O)Nc4ccc(Cl)c(C(F)(F)F)c4)cc3)c2cc1OCCCN1CCOCC1 | 539 | 285 | 17 | 371 | – | 3
COc1cc2ncnc(Nc3cccc(NC(=O)Nc4cccc(C)c4)c3)c2cc1OCCCN1CCOCC1 | 119 | 2350 | 8570 | 54 | – | –

These reach a lower IC50 [1]. Values come first.

IC50 [1] [nM] | IC50 [2] [nM] | IC50 [3] [nM] | IC50 [4] [nM] | Ratio IC50 [5] | Ratio IC50 [6] | SMILES
22 | 165 | 95 | 13 | 5 | – | CCN(CCO)CCCOc1ccc2c(Nc3cccc(NC(=O)Nc4ccc(F)c(Cl)c4)c3)ncnc2c1
31 | > 10000 | > 10000 | 55 | 4 | – | COc1cc2ncnc(Nc3cccc(NC(=O)Nc4ccc(F)c(Cl)c4)c3)c2cc1OCCCN1CCOCC1
